Experimental data published in patent publication US11400084B2 (BioTheryX, Inc., priority 2018, dated 2022).

Columns and labels:
Type in all cases: cell-based
[1] = biological target: T1, GSPT1 (Homo sapiens, UniProt P15170+Q96SW2); assay: Western blot GSPT1 degradation assay in MV-4-11 cells; settings: 1 μM, MV-4-11 cells, 6-8 hours
T1 construct: whole cell protein extracts were separated on 4-12% SDS-polyacrylamide gels; endogenous in cells; host or cells: MV-4-11
Protocol: (§1) MV-4-11 cells were grown in RPMI 1640 media supplemented with 10% fetal bovine serum, streptomycin and penicillin.
(§2) Cells were cultured at approximately 10^6 cells per mL and incubated in DMSO or the indicated compound for 6-8 hours. Whole cell extracts were prepared using RIPA buffer according to manufacturer's protocol (Pierce). Briefly, 3×10^6 cells were washed once in PBS, the cell pellets were resuspended in RIPA buffer and allowed to incubate for 15 minutes on ice. Cells debris was removed by centrifugation and the cleared whole cell lysates were transferred to new tubes for further analysis.
(§3) For Western blot analysis, whole cell protein extracts were separated on 4-12% SDS-polyacrylamide gels, transferred to nitrocellulose and probed with the indicated primary antibodies. Membranes were subsequently washed and probed with the appropriate IRDye secondary antibodies (LI-COR). The signal was detected using the Odyssey Imaging System (LI-COR).
(§4) The following antibodies were used in these studies: Anti-eRF3/GSPT1: Abcam, ab126090 (Cambridge, Mass.); Anti-Ikaros: Abcam, ab191394 (Cambridge, Mass.); Anti-CK1α: Abcam, ab108296 (Cambridge, Mass.); β-actin (8H10D10) mouse monoclonal antibody: Cell Signaling Technology, #3700 (Danvers, Mass.); IRDye 680RD Goat anti-rabbit antibody: LI-COR, 926-68071 (Lincoln, Nebr.); IRDye 800CW Goat anti-mouse antibody: LI-COR, 926-32210 (Lincoln, Nebr.).
(§5) In each of Tables 1-3, the % degradation values are reported as “A”, “B”, “C”, or “D.” “A” represents a % degradation value of less than 25% (value<25%); “B” represents a % degradation value of equal to or more than 25% and less than 50% (25%≤value<50%); “C” represents a % degradation value of equal to or more than 50% and less than 75% (50%≤value<75%); and “D” represents a % degradation value of equal to or more than 75% (value≥75%).

[2] = test system: IL-1β; assay: IL-1β inhibition assay, LPS-induced PBMCs or CD14+ monocytes, Meso Scale; settings: 100 ng/mL LPS 18-24 h
Protocol: (§6) Either frozen primary blood mononuclear cells (PBMCs) or frozen CD14+ mobilized peripheral blood monocytes were purchased from AllCells (PB003F, Normal Peripheral Blood MNC (Alameda, Calif.)). Cells were quick thawed, washed 1-time with RPMI-1640 (10% FBS/1% Pen-Strep) and plated in 96 well plates at 200,000 cells per well. Cells were pretreated with DMSO only or with the indicated compound for 1 h and then induced with 100 ng/mL lipopolysaccharide (LPS) for 18-24 h. The supernatant was analyzed for IL-1β, IL-6, and TNFα, using Meso Scale assay according to manufacturer's protocol. The negative control wells were treated with DMSO.

[3] = test system: MOLM-13 cells; assay: MOLM-13 cell viability assay (CellTiter-Glo 2, 3 days, 2500 cells/well); settings: Homo sapiens, MOLM-13, 72 h, percentage of DMSO control
Protocol: MOLM-13 cells were cultured in RPMI 1640 media supplemented with 10% fetal bovine serum, streptomycin and penicillin, and were plated in white walled 96-well plates at 2500 cells/well. Cells were incubated in DMSO (control) or the indicated compound for 3 days at 37° C. and 5% CO2. Following the incubation period, 100 μL of CellTiterGlow2 (CTG2) reagent (CellTiter-Glo®2 Luminescent Cell Viability Assay, Promega (Madison, Wis.)) was added to each well. Following a 10 minutes incubation with shaking, luminescence was measured using the EnVision Multimode plate reader.
The MOLM-13 cell viability values, measured as percentages of the DMSO control, are reported in Table 8 as “A”, “B”, “C”, or “D.” “A” represents a % viability value of less than 40% (value<40%). “B” represents a % viability value of equal to or more than 40% and less than 60% (40%≤value<60%). “C” represents a % viability value of equal to or more than 60% and less than 90% (60%≤value<90%). “D” represents a % viability value of equal or more than 90% (value≥90%).

[4] = test system: TNFα; assay: TNF-α inhibition assay, LPS-induced PBMCs or CD14+ monocytes, Meso Scale; settings: 100 ng/mL LPS 18-24 h
Protocol: as §6

[5] = biological target: T2, IKAROS (Homo sapiens, UniProt Q13422+Q96SW2); assay: Western blot IKAROS degradation assay in MV-4-11 cells; settings: 6-8 hours
T2 construct: endogenous in cells; host or cells: MV-4-11
Protocol: as §1, §2, §3, §4, §5

[6] = test system: IL-2; assay: IL-2 fold-change assay, anti-CD3 stimulated PBMCs, Mesoscale; settings: Homo sapiens, PBMC, 24 h, fold difference from the DMSO control
Protocol: For the IL-2 analysis, 96 well plates were precoated with 1 μg/mL anti-human CD3 antibody (OKT3, eBioscience Inc., San Diego, Calif.). After washing with PBS, the indicated compound was added (50 μL/well) followed by PBMCs diluted at 3-4 million cells/mL (150 μL/well). Plates were incubated for 24 h and the supernatants collected for Mesoscale IL-2 analysis. IL-2 activity is measured as fold difference from the DMSO control.
In Table 7, the fold-change values are reported as “A”, “B”, “C”, or “D”. “A” represents a fold-change value of equal to or less than 1 (value≤1); “B” represents a fold-change value of more than 1 and equal to or less than 2 (1<value≤2); “C” represents a fold-change value of more than 2 and equal to or less than 3 (2<value≤3); and “D” represents a fold-change value of more than 3 (value>3).

[7] = biological target: T3, CK1α (Homo sapiens, UniProt P48729+Q96SW2); assay: Western blot CK1α degradation assay in MV-4-11 cells; settings: 6-8 hours
T3 construct: endogenous in cells; host or cells: MV-4-11
Protocol: as §1, §2, §3, §4, §5

T1 sequence (P15170 whole entry): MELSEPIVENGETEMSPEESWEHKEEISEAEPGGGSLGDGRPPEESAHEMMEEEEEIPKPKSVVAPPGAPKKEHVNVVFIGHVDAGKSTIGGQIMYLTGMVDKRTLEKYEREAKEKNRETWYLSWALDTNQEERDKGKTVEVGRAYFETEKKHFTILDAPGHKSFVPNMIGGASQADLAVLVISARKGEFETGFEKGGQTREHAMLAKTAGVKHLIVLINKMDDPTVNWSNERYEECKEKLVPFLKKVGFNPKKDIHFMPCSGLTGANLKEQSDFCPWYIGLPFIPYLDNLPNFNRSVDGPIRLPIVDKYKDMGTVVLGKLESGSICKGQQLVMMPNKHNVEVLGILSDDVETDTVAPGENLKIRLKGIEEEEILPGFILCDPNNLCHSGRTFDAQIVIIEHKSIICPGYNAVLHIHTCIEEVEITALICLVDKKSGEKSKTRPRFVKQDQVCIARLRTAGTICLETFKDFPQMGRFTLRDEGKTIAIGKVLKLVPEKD
T1 sequence (Q96SW2 whole entry): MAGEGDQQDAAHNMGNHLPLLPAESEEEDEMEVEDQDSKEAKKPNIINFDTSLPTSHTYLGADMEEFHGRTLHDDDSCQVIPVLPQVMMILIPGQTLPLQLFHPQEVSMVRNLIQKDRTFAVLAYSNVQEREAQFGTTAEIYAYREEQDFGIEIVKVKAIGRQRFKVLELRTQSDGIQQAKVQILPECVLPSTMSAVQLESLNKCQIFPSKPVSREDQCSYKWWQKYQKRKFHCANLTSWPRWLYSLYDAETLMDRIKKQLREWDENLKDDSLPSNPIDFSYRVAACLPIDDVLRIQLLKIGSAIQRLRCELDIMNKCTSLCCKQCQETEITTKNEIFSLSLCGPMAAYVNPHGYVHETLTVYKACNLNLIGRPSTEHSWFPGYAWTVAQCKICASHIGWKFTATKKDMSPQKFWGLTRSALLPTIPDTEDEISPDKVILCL
T1 sequence (Q16531 whole entry partner): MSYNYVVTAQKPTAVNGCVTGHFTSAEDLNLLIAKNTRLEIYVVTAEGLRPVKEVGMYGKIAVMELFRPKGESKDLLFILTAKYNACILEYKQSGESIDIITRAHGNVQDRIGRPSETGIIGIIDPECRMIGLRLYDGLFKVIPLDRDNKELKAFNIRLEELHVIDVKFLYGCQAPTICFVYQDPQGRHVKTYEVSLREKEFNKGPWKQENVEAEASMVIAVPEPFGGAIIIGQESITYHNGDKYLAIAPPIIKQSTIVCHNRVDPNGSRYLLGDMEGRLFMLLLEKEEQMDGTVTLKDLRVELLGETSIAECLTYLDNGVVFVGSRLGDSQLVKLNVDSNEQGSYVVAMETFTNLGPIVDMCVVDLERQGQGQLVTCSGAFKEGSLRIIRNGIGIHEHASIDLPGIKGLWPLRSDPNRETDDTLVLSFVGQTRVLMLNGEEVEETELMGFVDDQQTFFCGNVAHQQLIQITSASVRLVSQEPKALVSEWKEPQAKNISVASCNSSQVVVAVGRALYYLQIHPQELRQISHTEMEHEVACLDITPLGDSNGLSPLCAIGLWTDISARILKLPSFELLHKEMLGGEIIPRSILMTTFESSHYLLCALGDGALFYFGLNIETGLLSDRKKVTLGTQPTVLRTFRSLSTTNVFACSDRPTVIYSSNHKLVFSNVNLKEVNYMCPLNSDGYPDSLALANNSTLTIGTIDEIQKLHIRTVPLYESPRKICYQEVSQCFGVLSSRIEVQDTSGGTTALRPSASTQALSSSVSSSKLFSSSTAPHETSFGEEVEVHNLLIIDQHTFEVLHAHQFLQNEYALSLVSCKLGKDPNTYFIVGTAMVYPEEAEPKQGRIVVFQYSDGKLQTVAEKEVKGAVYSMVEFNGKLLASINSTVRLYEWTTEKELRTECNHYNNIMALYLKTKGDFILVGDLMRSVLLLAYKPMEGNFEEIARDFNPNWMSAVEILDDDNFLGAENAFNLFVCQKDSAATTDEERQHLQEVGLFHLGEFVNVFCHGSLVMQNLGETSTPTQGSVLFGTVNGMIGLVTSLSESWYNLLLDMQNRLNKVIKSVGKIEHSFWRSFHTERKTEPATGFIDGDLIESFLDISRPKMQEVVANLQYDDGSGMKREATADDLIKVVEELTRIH
T2 sequence (Q13422 whole entry): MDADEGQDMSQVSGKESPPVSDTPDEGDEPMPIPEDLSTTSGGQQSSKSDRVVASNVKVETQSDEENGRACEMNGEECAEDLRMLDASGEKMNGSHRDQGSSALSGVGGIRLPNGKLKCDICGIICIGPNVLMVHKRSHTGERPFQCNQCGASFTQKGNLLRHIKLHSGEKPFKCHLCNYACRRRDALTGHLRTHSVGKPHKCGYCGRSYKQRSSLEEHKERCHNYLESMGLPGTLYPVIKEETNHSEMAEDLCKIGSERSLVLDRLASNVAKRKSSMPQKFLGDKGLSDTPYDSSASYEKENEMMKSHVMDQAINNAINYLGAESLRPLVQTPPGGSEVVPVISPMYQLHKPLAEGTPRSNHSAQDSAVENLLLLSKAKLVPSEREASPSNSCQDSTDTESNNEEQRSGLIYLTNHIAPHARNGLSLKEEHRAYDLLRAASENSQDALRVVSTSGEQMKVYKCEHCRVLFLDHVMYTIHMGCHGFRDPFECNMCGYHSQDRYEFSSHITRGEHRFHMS
T2 sequence (Q96SW2 whole entry): as the sequence (Q96SW2 whole entry) above
T2 sequence (Q16531 whole entry partner): as the sequence (Q16531 whole entry partner) above
T3 sequence (P48729 whole entry): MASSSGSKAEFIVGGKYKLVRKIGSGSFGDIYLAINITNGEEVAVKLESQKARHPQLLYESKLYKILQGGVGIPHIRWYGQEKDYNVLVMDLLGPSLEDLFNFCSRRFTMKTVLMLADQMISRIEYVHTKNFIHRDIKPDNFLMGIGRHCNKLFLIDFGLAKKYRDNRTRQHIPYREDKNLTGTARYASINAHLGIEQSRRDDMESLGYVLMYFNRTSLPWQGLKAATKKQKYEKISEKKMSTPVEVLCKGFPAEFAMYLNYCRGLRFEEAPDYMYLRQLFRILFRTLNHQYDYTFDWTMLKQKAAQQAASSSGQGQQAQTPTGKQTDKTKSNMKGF
T3 sequence (Q96SW2 whole entry): as the sequence (Q96SW2 whole entry) above
T3 sequence (Q16531 whole entry partner): as the sequence (Q16531 whole entry partner) above

Cc1cc(NCC(=O)NCc2ccc3c(c2)CN(C2CCC(=O)NC2=O)C3=O)ccc1N1CCOCC1 (centres unmarked) [Compound 23, N-((2-(2,6-dioxopiperidin-3-yl)-1-oxoisoindolin-5-yl)methyl)-2-((3-methyl-4-morpholinophenyl)amino)acetamide]
GSPT1 % Degradation at 1 μM [1]: B (a % degradation value of equal to or more than 25% and less than 50% (25%≤value<50%)) | inhibition at 1 µM [2]: 30 to 50% | viability at 1 µM [3]: 40 to 60% | inhibition at 1 µM [4]: 30 to 50% | IKAROS % Degradation at 1 μM [5]: C (a % degradation value of equal to or more than 50% and less than 75% (50%≤value<75%)) | fold induction at 1 µM [6]: 1 to 2

CN(C)Cc1ccc(NCC(=O)NCc2ccc3c(c2)CN(C2CCC(=O)NC2=O)C3=O)cc1Cl (centres unmarked) [Compound 26]
CK1α % Degradation at 1 μM [7]: C (a % degradation value of equal to or more than 50% and less than 75% (50%≤value<75%)) | GSPT1 % Degradation at 1 μM [1]: C (a % degradation value of equal to or more than 50% and less than 75% (50%≤value<75%))

O=C(CNc1ccc(N2CCOCC2)c(Cl)c1)NCc1ccc2c(c1)CN(C1CCC(=O)NC1=O)C2=O (centres unmarked) [Compound 22, 2-((3-chloro-4-morpholinophenyl)amino)-N-((2-(2,6-dioxopiperidin-3-yl)-1-oxoisoindolin-5-yl)methyl)acetamide]
inhibition at 1 µM [2]: 50 to 75% | inhibition at 1 µM [4]: 50 to 75% | fold induction at 1 µM [6]: 2 to 3

Cc1ccc(NC(C)C(=O)NCc2scc3c2CN(C2CCC(=O)NC2=O)C3=O)cc1Cl (centres unmarked) [Compound 7, 2-((3-chloro-4-methylphenyl)amino)-N-((5-(2,6-dioxopiperidin-3-yl)-4-oxo-5,6-dihydro-4H-thieno[3,4-c]pyrrol-1-yl)methyl)propanamide]
inhibition at 1 µM [2]: > 75% | inhibition at 1 µM [4]: > 75% | fold induction at 1 µM [6]: 2 to 3

Cc1ccc(NCC(=O)NCc2scc3c2CN(C2CCC(=O)NC2=O)C3=O)cc1N(C)C (centres unmarked) [Compound 4, 2-((3-(dimethylamino)-4-methylphenyl)amino)-N-((5-(2,6-dioxopiperidin-3-yl)-4-oxo-5,6-dihydro-4H-thieno[3,4-c]pyrrol-1-yl)methyl)acetamide]
GSPT1 % Degradation at 1 μM [1]: B (a % degradation value of equal to or more than 25% and less than 50% (25%≤value<50%)) | inhibition at 1 µM [2]: 50 to 75% | viability at 1 µM [3]: > 90% | inhibition at 1 µM [4]: 50 to 75% | IKAROS % Degradation at 1 μM [5]: B (a % degradation value of equal to or more than 25% and less than 50% (25%≤value<50%)) | fold induction at 1 µM [6]: 2 to 3

O=C(CNc1cccc(CN2CCOCC2)c1)NCc1scc2c1CN(C1CCC(=O)NC1=O)C2=O (centres unmarked) [Compound 11, N-((5-(2,6-dioxopiperidin-3-yl)-4-oxo-5,6-dihydro-4H-thieno[3,4-c]pyrrol-1-yl)methyl)-2-((3-(morpholinomethyl)phenyl)amino)acetamide]
GSPT1 % Degradation at 1 μM [1]: B (a % degradation value of equal to or more than 25% and less than 50% (25%≤value<50%)) | inhibition at 1 µM [2]: 30 to 50% | viability at 1 µM [3]: < 40% | inhibition at 1 µM [4]: 30 to 50% | IKAROS % Degradation at 1 μM [5]: B (a % degradation value of equal to or more than 25% and less than 50% (25%≤value<50%)) | fold induction at 1 µM [6]: 1 to 2

O=C(CNc1ccc(CN2CCOCC2)cc1)NCc1scc2c1CN(C1CCC(=O)NC1=O)C2=O (centres unmarked) [Compound 9, N-((5-(2,6-dioxopiperidin-3-yl)-4-oxo-5,6-dihydro-4H-thieno[3,4-c]pyrrol-1-yl)methyl)-2-((4-(morpholinomethyl)phenyl)amino)acetamide]
inhibition at 1 µM [2]: 50 to 75% | inhibition at 1 µM [4]: 50 to 75% | fold induction at 1 µM [6]: 1 to 2

Cc1ccc(NCC(=O)NCc2cc3c(s2)CN(C2CCC(=O)NC2=O)C3=O)cc1Cl (centres unmarked) [Compound 6, 2-((3-chloro-4-methylphenyl)amino)-N-((5-(2,6-dioxopiperidin-3-yl)-4-oxo-5,6-dihydro-4H-thieno[2,3-c]pyrrol-2-yl)methyl)acetamide]
inhibition at 1 µM [2]: < 30% | inhibition at 1 µM [4]: < 30%

Cc1ccc(NCC(=O)NCc2scc3c2CN(C2CCC(=O)NC2=O)C3=O)cc1Cl (centres unmarked) [Compound 2, 2-((3-chloro-4-methylphenyl)amino)-N-((5-(2,6-dioxopiperidin-3-yl)-4-oxo-5,6-dihydro-4H-thieno[3,4-c]pyrrol-1-yl)methyl)acetamide]
GSPT1 % Degradation at 1 μM [1]: C (a % degradation value of equal to or more than 50% and less than 75% (50%≤value<75%)) | inhibition at 1 µM [2]: > 75% | viability at 1 µM [3]: > 90% | inhibition at 1 µM [4]: 50 to 75% | IKAROS % Degradation at 1 μM [5]: D (a % degradation value of equal to or more than 75% (value≥75%)) | fold induction at 1 µM [6]: 1 to 2

Cc1ccc(NCC(=O)NCc2ccc3c(c2)C(=O)N(C2CCC(=O)NC2=O)C3=O)cc1Cl (centres unmarked) [Compound 19, 2-((3-chloro-4-methylphenyl)amino)-N-((2-(2,6-dioxopiperidin-3-yl)-1,3-dioxoisoindolin-5-yl)methyl)acetamide]
GSPT1 % Degradation at 1 μM [1]: D (a % degradation value of equal to or more than 75% (value≥75%)) | viability at 1 µM [3]: 60 to 90% | inhibition at 1 µM [4]: 30 to 50% | IKAROS % Degradation at 1 μM [5]: B (a % degradation value of equal to or more than 25% and less than 50% (25%≤value<50%)) | fold induction at 1 µM [6]: ≤ 1

Cc1ccc(NCC(=O)NCc2ccc3c(c2)CN([C@H]2CCCC(=O)NC2=O)C3=O)cc1Cl [Compound 12]
GSPT1 % Degradation at 1 μM [1]: C (a % degradation value of equal to or more than 50% and less than 75% (50%≤value<75%)) | inhibition at 1 µM [2]: < 30% | inhibition at 1 µM [4]: < 30% | fold induction at 1 µM [6]: 1 to 2

Cc1ccc(NC(C)C(=O)NCc2ccc3c(c2)CN(C2CCC(=O)NC2=O)C3=O)cc1Cl (centres unmarked) [Compound 15, 2-((3-chloro-4-methylphenyl)amino)-N-((2-(2,6-dioxopiperidin-3-yl)-1-oxoisoindolin-5-yl)methyl)propanamide]
fold induction at 1 µM [6]: 1 to 2

CN(C)c1ccc(NCC(=O)NCc2scc3c2CN(C2CCC(=O)NC2=O)C3=O)cc1Cl (centres unmarked) [Compound 8, 2-((3-chloro-4-(dimethylamino)phenyl)amino)-N-((5-(2,6-dioxopiperidin-3-yl)-4-oxo-5,6-dihydro-4H-thieno[3,4-c]pyrrol-1-yl)methyl)acetamide]
inhibition at 1 µM [2]: > 75% | inhibition at 1 µM [4]: > 75% | fold induction at 1 µM [6]: 1 to 2
